Data on 93 compounds can be found in PubChem BioAssay AID463229 (Broad Institute, 2010).

Some results are limits rather than exact numbers.

In this assay the test system is INS-1E rat beta cells, no cytokines, CellTiter-Glo ATP, 48 h. As to the kind of experiment: ATP level change in INS-1E without cytokines, dose response, counter-screen for beta-cell apoptosis protection project, INS-1E rat cells, ATP luminescence, cherry pick (AID 463229).
Consider `NC(N)=N/N=C/c1cn(-c2ccccc2)nc1-c1cccs1`, for which the AC50 was 14.2 µM.
Next, `COc1ccc(CNc2ncnc3sccc23)cc1`: 11.3 µM; `Nc1nonc1-n1nnc(C(=O)N/N=C/c2ccccc2O)c1CN1CCCC1`: 22.9 µM; `C/C(=N\N1C(=O)c2ccccc2NC1c1ccco1)c1ccccc1O` (stereo not drawn): 12.5 µM.
Under `Cc1cc(C(C)(C)C)cc(C)c1C[n+]1ccc2ccccc2c1` stands 1.74 µM; under `CCOC(=O)COc1ccc2ccccc2c1/C=C/[N+](=O)[O-]`, 10.6 µM.
As to `O=[N+]([O-])c1ccc(-c2nc3ccc([N+](=O)[O-])cc3[nH]2)cc1`, the AC50 was 6.93 µM.
Regarding `CCCCS(=O)(=O)/C=C\C=C/S(=O)(=O)CCCC`, the AC50 is 5.48 µM.
In the case of `Cc1ccc(-c2cc(-c3ccc(C)cc3)[n+](-c3ccc(C(=O)[O-])cc3)c(-c3ccc(C)cc3)c2)cc1`, the AC50 is 7.24 µM.
Next, `Cc1ccc2nc(NNC(=O)c3ccc(S(=O)(=O)N4CCc5ccccc5C4)cc3)sc2c1`: 4.18 µM.
Next, `Cc1nn(Cc2c(Cl)cccc2Cl)c(C)c1NC(=O)c1cn(-c2ccccc2)nc1-c1ccccc1`: 4.24 µM.
Next, `CC[C@H](C)Cc1cn([C@@H](CCCCNC(=O)OC(C)(C)C)C(=O)NCCCCCCCCCCC(=O)N2CCN(C(=O)OC(C)(C)C)CC2)nn1`: 20.2 µM; `CCC1CCCCN1C(=O)c1cc(COc2ccc(-n3cncn3)cc2)on1` (stereo not drawn): 16.5 µM; `O=S(=O)(NCC1CCCO1)c1ccc(-c2ccc(S(=O)(=O)NCC3CCCO3)cc2)cc1` (stereo not drawn): 4.95 µM.
For the compound `O=C(Nc1nc(NC(=O)c2ccco2)n(-c2ccccc2)n1)c1ccccc1`, the AC50 was 6.83 µM.
In the case of `COc1ccc(CNCCc2c(C)[nH]c3ccc(OC(F)(F)F)cc23)c(OC)c1`, the AC50 was 6.6 µM.
As for `Cc1ccc(C(C)C)c(OCc2nn(CC(=O)c3ccc(OC(F)F)cc3)c3[n+]2CCCCC3)c1`, the half-maximal activity concentration (AC50) is 4.43 µM.
Under `O=c1nccc(N/N=C/c2ccccc2O)[nH]1` stands 23.3 µM.
Under `O=C1c2ccc3c4c(ccc(c24)C(=O)N1c1cccc(O)c1)C(=O)N(c1cccc(O)c1)C3=O` stands 3.36 µM; under `CC1Cc2cc(S(=O)(=O)N3CCC(C(=O)N4CCN(c5ccccc5F)CC4)CC3)ccc2N1C(=O)C1CC1` (stereo not drawn), 8 µM; under `COc1ccc(C(NC(C)=O)c2ccc3cccnc3c2O)c(OC)c1` (stereo not drawn), 4.24 µM.
Under `COc1cc2nc(N3CCN(c4cc(C)ccc4C)CC3)nc(N)c2cc1OC` stands 6.91 µM.
`CCCCCCCCCCOC(=O)Cn1c(COc2cccc(OC)c2)[n+](C)c2ccccc21`: the AC50 was 3.47 µM.
With `O=[N+]([O-])c1ccc(-[n+]2ccc3ccccc3c2)c([N+](=O)[O-])c1`, the AC50 is 7.89 µM.
Next, `Fc1cc(F)c2nc(Nc3nc4c(F)cccc4s3)sc2c1`: 4.95 µM.
Take `COc1cc(/C=C/C(=O)c2ccc([N+](=O)[O-])o2)ccc1O`: the AC50 was 3.91 µM.
Under `NC(=O)c1c(-c2ccc(Cl)cc2Cl)csc1NC(=O)Cc1ccccc1` stands 4.08 µM.
Consider `O=C(Nc1cccc(Cl)c1)Nc1nnc(CSCCOc2ccc(Cl)cc2)s1`, for which the AC50 is 5.39 µM.
For the compound `Oc1ccc(/C=N/Nc2ncc(Br)cn2)c(O)c1`, the AC50 was 3.83 µM.
Under `COc1ccc(-c2nc(-c3ccccn3)no2)cc1` stands 3.11 µM; under `COCc1ccc(O)c2ncccc12`, 15.9 µM.
Next, `O=C(NN=C(c1ccccc1)c1ccccn1)c1ccccc1`: 2.55 µM; `O=[N+]([O-])c1cnc(Sc2ccncn2)s1`: 5.75 µM.
Next, `O=S(=O)(/C(=C/c1ccc(C(F)(F)F)cc1)c1nc2ccccc2[nH]1)c1ccccc1`: 5.45 µM; `COc1ccc(NC(=O)/C(Cl)=C(/Cl)S(=O)Cc2ccc(C)cc2)cn1` (stereo not drawn): 1.3 µM; `C=C[C@H](Cc1ccccc1)N(Cc1ccccc1)S(=O)(=O)N(Cc1ccccc1)[C@H](C=C)Cc1ccccc1`: 4.79 µM.
Take `Cc1cc(Br)cc(/C=N/NC(=O)c2ccc3c(c2)OCO3)c1O`: the AC50 is 7.43 µM.
Next, `CCc1c(C)sc2nc(C(C)C)nc(SCC(=O)N3CCc4ccccc4C3)c12`: 2.08 µM; `O=C(NNC(=O)c1ccccc1OCc1ccc(F)cc1)c1ccccc1O`: 13.6 µM.
Next, `Cc1oc2c(c1C(=O)c1ccccc1)C(=O)C(=O)c1ccccc1-2`: 3.52 µM; `O=C(N/N=C/c1c(O)ccc2ccccc12)c1cccnc1`: 4.07 µM; `Cc1cc(-c2ccccc2)cc(-c2ccccc2)[n+]1CCc1ccccc1`: below 0.195 µM.
Consider `c1ccc2c(CN3CCCCCCC3)c[nH]c2c1`, for which the AC50 was 4.48 µM.
Next, `CC1CCN(c2ccc(NC(=O)c3ccc([N+](=O)[O-])o3)cc2)CC1`: 10.1 µM; `COc1ccc(-c2nc3ccc(C)cn3c2NCc2ccccc2)cc1SC1CCCCC1`: 2.34 µM; `O=C(N/N=C/c1ccccc1O)C1CC(=O)N(c2ccc(Cl)cc2)C1` (stereo not drawn): 17.7 µM.
Under `CCN(CC)c1ccc(/C=N/NC(=O)c2c(Cl)cnn2C)c(O)c1` stands 1.5 µM.
As to `NC(N)=N/N=C/c1ccc(N(c2ccccc2)c2ccccc2)cc1`, the AC50 was 7.36 µM.
Under `CCCCCc1ccc(OCCCC[n+]2ccccc2)c(CCCCC)c1` stands 3.3 µM; under `N#CC(C#N)=NNc1ccc(-n2ccc(C(F)(F)F)n2)cc1`, 7.8 µM; under `CC(C)CCCCCCNC(=S)Nc1ccc(S(=O)(=O)N2CCOCC2)cc1`, 12.6 µM.
As for `Cc1ccc(Nc2cc(C)nn2-c2nc(C)cc(=O)[nH]2)cc1`, the AC50 is 1.57 µM.
Under `Cc1ccc(C(=O)C[n+]2cc(-c3ccccc3)n3c2CCCCC3)cc1` stands 6 µM.
`O=C(NC1CCCC1)c1cc(COc2ccc3ncccc3c2)on1`: the AC50 is 5.91 µM.
Under `COC(=O)[C@H](Cc1ccccc1)N(Cc1ccccc1)S(=O)(=O)N(Cc1ccccc1)[C@@H](Cc1ccccc1)C(=O)OC` stands 4.38 µM; under `CCC(=O)NC(c1ccc(Cl)cc1Cl)c1ccc2cccnc2c1O` (stereo not drawn), 2.34 µM.
Next, `O=C(Nc1nc2c(F)cc(F)cc2s1)c1ccccn1`: 6.37 µM; `S=C(c1cn(CCOc2cccc3ccccc23)c2ccccc12)N1CCCC1`: 7.48 µM.
Consider `C#CCOCCOCCOCCNc1nc(N2CCN(C(=O)CCCCCCCCCCNC(=O)[C@H](CCCCN)n3cc(CCO)nn3)CC2)nc(N2CCN(C(=O)CCCCCCCCCCNC(=O)[C@H](CCCCN)n3cc(C[C@@H](C)CC)nn3)CC2)n1`, for which the AC50 is 10.6 µM.
Next, `Cn1cc(CNCc2ccc(OC(F)(F)F)cc2)c(-c2ccc3c(c2)OCCO3)n1`: 3.64 µM; `COc1cccc(CN(C)C(=O)c2cc(COc3ccc4ncccc4c3)on2)c1`: 6.86 µM.
Under `O=C(NCc1cccnc1)/C(=C\c1ccc(-c2cccc(Cl)c2)o1)S(=O)(=O)c1ccccc1` stands 6.78 µM; under `COc1ccc2nc(Nc3nc(CSc4nc5ccccc5[nH]4)cc(=O)[nH]3)nc(C)c2c1`, 7.05 µM; under `Cc1noc(-c2ccc(C(F)(F)F)cc2)c1NC(=O)Nc1ccc(Cl)cc1`, 7.7 µM.
Under `CCCCCn1c(=O)c(C(=O)NC(C)c2ccccc2)c(O)c2ccccc21` (stereo not drawn) stands 4.19 µM; under `Cc1cc(C)cc(NC(=O)/C(C#N)=C/c2cn(CC(=O)NCc3ccco3)c3ccccc23)c1`, 5.06 µM; under `CCCCCCc1cc2cc(C(=O)Nc3cccc(OC)c3)c(=O)oc2cc1O`, 4.41 µM.
Turning to `CCCCCCCCCCOC(=O)Cn1c(COc2ccccc2C)[n+](C)c2ccccc21`, the AC50 is 3.22 µM.
Under `CC1=CC2/C=C(\C)CCC(O)C(O)/C=C/C(=O)C23C(=O)NC(CC(C)C)C3C1C` (stereo not drawn) stands 7.48 µM; under `Cc1ccc(S(=O)(=O)Nc2ccccc2C(=O)Nc2nc(-c3ccc(F)cc3)cs2)cc1`, 2.92 µM; under `C=CCn1c(C)c(/C=C/c2cc[n+](C)cc2)c2ccccc21`, 5.99 µM.
Next, `C/C(=N/NC(=O)c1cccs1)c1c(C)[nH]n(-c2nc3ccccc3s2)c1=O`: 16.2 µM.
As for `O=C(CC(O)(C(F)(F)F)C(F)(F)F)Nc1ccc(Cl)c(Cl)c1`, the AC50 was 2.73 µM.
Under `O=C(O)CCCC(=O)Nc1ccc(C(=O)NCc2cccnc2)cc1` stands 4.54 µM; under `O=C(N/N=C/c1ccc([N+](=O)[O-])s1)C(O)c1ccccc1` (stereo not drawn), 6.99 µM.
Under `Cc1cccc2c(C(=O)N3CCN(c4ccccn4)CC3)cc(-c3cccc(Br)c3)nc12` stands 3.08 µM; under `Cc1csc2ncnc(NCCc3ccccn3)c12`, 6.88 µM; under `Cc1cc2nc(-c3ccc(NC(=O)c4cccnc4)cc3)oc2cc1C`, 9.26 µM.
Next, `COc1ccc2c(c1)C(=O)[C@@H](O)[C@H](c1ccc(OC)c(Br)c1)O2`: 10.4 µM; `COc1cnc(-c2ccccn2)nc1NC(C)C`: 17.2 µM; `CCN1/C(=C/c2cccc[n+]2C)Sc2ccc(OC)cc21`: 1.58 µM.
For the compound `C#CCOCCOCCOCCNc1nc(N2CCN(C(=O)CCCCCCCCCCNC(=O)Cn3cc(C[C@@H](C)O)nn3)CC2)nc(N2CCN(C(=O)CCCCCCCCCCNC(=O)[C@@H]([C@H](C)CC)n3cc(CCCCCN)nn3)CC2)n1`, the half-maximal activity concentration (AC50) was 7.83 µM.
Turning to `Cc1ccc(NC(=O)COc2ccc(N(C)C(=O)C(C)(C)C)cc2)cc1S(=O)(=O)N1CCCCC1`, the AC50 is 5.78 µM.
Turning to `Cc1c(/C=N/Nc2nc3ccccc3[nH]2)c2ccccc2n1C`, the AC50 is 6.36 µM.
In the case of `c1ccc(-c2nc3nonc3nc2-c2ccccc2)cc1`, the AC50 was 11.1 µM.
Under `CC(C)(C)c1ccc(-n2ncc3c2CCCC3NC(=O)C2(C(N)=O)CC2)cc1` (stereo not drawn) stands 6.85 µM; under `COc1ccc(/C=N/Nc2cc(C)nc3ccc(OC)cc23)c(OC)c1`, 13.5 µM.
Under `COC1=CC(=O)[C@]2(C=C1OC)OC[C@@H]1Oc3c(ccc4c3C=CC(C)(C)O4)C(=O)[C@@H]12` stands 1.07 µM; under `CCOc1ccc(S(=O)(=O)NCc2ccncc2)cc1`, 1.65 µM; under `CC(=O)CSc1ccc(-c2nc3ccccc3[nH]2)cn1`, 6.38 µM.
Under `Fc1ccccc1N=C1NN=C(c2ccccc2)CS1` stands 4.95 µM; under `COc1ccc(C(=O)NC(=S)NNC(=O)c2cnccn2)cc1OC`, 7.95 µM.
For `COc1ccc(Cn2c(SCc3ccccc3C)nc3cc(OC)c(OC)cc3c2=N)cc1`, the AC50 is 7.93 µM.
